Tests used:
MCF7 = assay: Antiproliferative activity against human MCF7 cells assessed as inhibition of cell growth incubated for 48 hrs by MTT assay; type: functional, cell-based; conditions: MCF7, 48 h
MDA-MB-231 = assay: Antiproliferative activity against human MDA-MB-231 cells assessed as inhibition of cell growth incubated for 48 hrs by MTT assay; type: functional, cell-based; conditions: MDA-MB-231, 48 h
HepG2 = assay: Antiproliferative activity against human HepG2 cells assessed as inhibition of cell growth incubated for 48 hrs by MTT assay; type: functional, cell-based; conditions: HepG2, 48 h
HT-29 = assay: Antiproliferative activity against human HT-29 cells assessed as inhibition of cell growth incubated for 48 hrs by MTT assay; type: functional, cell-based; conditions: HT-29, 48 h
A549 = assay: Antiproliferative activity against human A549 cells assessed as inhibition of cell growth incubated for 48 hrs by MTT assay; type: functional, cell-based; conditions: A549, 48 h
PC-3 = assay: Antiproliferative activity against human PC-3 cells assessed as inhibition of cell growth incubated for 48 hrs by MTT assay; type: functional, cell-based; conditions: PC-3, 48 h
[1] = Cytotoxicity against human L02 cells assessed as inhibition of cell growth incubated for 48 hrs by MTT assay; type: toxicity, cell-based

Row | Compound | IC50 (MCF7) | IC50 (MDA-MB-231) | IC50 (HepG2) | IC50 (HT-29) | IC50 (A549) | IC50 (PC-3) | IC50 at 48 h [1]
1 | COc1ccc2[nH]c3c(C(=O)/C=C/c4cc(F)c(F)c(F)c4)nccc3c2c1 | 4.23 µM | 6.52 µM | 15.9 µM | 2.72 µM | > 20 µM | > 10 µM | > 20 µM
2 | COc1ccc2[nH]c3c(C(=O)/C=C/c4c(C)cccc4C)nccc3c2c1 | 10.1 µM | > 20 µM | > 20 µM | > 20 µM | > 20 µM | > 10 µM | > 20 µM
3 | O=C(/C=C/c1cc(Cl)ccc1Cl)c1nccc2c1[nH]c1ccccc12 | 0.59 µM | 2.77 µM | 3.37 µM | 3.14 µM | 6.78 µM | 1.4 µM | 9.91 µM
4 | O=C(/C=C/c1ccccc1Cl)c1nccc2c1[nH]c1ccccc12 | 3.35 µM | 3.43 µM | 2.8 µM | 12.5 µM | 5.37 µM | 2.39 µM | 11.4 µM
5 | COc1ccc2[nH]c3c(C(=O)/C=C/c4cc(Cl)ccc4Cl)nccc3c2c1 | 7.95 µM | 8.13 µM | > 20 µM | 0.68 µM | > 20 µM | > 10 µM | > 20 µM
6 | COc1ccc2[nH]c3c(C(=O)/C=C/c4ccc([N+](=O)[O-])cc4)nccc3c2c1 | 15.5 µM | > 20 µM | > 20 µM | > 20 µM | > 20 µM | > 10 µM | > 20 µM
7 | COc1ccc2[nH]c3c(C(=O)/C=C/c4ccc(Cl)c([N+](=O)[O-])c4)nccc3c2c1 | > 20 µM | 2.99 µM | 7.72 µM | > 20 µM | 5.72 µM | > 10 µM | > 20 µM
8 | COc1ccc(/C=C/C(=O)c2nccc3c2[nH]c2ccccc23)cc1 | 17.3 µM | > 20 µM | > 20 µM | 19 µM | > 20 µM | > 10 µM | > 20 µM
9 | COc1ccc2[nH]c3c(C(=O)/C=C/c4ccc(Br)cc4)nccc3c2c1 | 8.45 µM | 5.67 µM | 15.7 µM | 7.74 µM | > 20 µM | 4.18 µM | > 20 µM
10 | COc1ccc2[nH]c3c(C(=O)/C=C/c4ccccc4Cl)nccc3c2c1 | > 20 µM | 1.43 µM | > 20 µM | 0.52 µM | > 20 µM | > 10 µM | > 20 µM
11 | COc1ccc2[nH]c3c(C(=O)/C=C/c4c(OC)cccc4OC)nccc3c2c1 | 5.71 µM | 12 µM | 7.13 µM | 13.6 µM | 15.3 µM | > 10 µM | > 20 µM
12 | O=C(/C=C/c1cc(F)c(F)c(F)c1)c1nccc2c1[nH]c1ccccc12 | 0.88 µM | 2.05 µM | 0.96 µM | 0.89 µM | 5.73 µM | 1.19 µM | 17.8 µM
13 | COc1ccc2[nH]c3c(C(=O)/C=C/C=C/c4ccccc4)nccc3c2c1 | 17.5 µM | > 20 µM | 18.9 µM | > 20 µM | > 20 µM | > 10 µM | > 20 µM
14 | COc1ccc2[nH]c3c(C(=O)/C=C/c4cccc(Br)c4)nccc3c2c1 | > 20 µM | > 20 µM | > 20 µM | 0.49 µM | > 20 µM | > 10 µM | > 20 µM
15 | COc1cccc(OC)c1/C=C/C(=O)c1nccc2c1[nH]c1ccccc12 | 10.5 µM | > 20 µM | > 20 µM | > 20 µM | > 20 µM | > 10 µM | > 20 µM
16 | COc1ccc2[nH]c3c(C(=O)/C=C/c4ccc(OC)c(OC)c4OC)nccc3c2c1 | 6.1 µM | > 20 µM | > 20 µM | 6.08 µM | 7.1 µM | > 10 µM | > 20 µM
17 | O=C(/C=C/c1ccc([N+](=O)[O-])cc1)c1nccc2c1[nH]c1ccccc12 | 5.87 µM | 0.62 µM | > 20 µM | 3.96 µM | > 20 µM | > 10 µM | > 20 µM
18 | COc1ccc2[nH]c3c(C(=O)/C=C/c4ccc5c(c4)OCCO5)nccc3c2c1 | 14.5 µM | 18.1 µM | 15.6 µM | > 20 µM | > 20 µM | 3.79 µM | > 20 µM
19 | COc1cc(Br)c(/C=C/C(=O)c2nccc3c2[nH]c2ccccc23)cc1OC | 2.21 µM | 7.03 µM | 9.65 µM | 3.75 µM | 9.83 µM | > 10 µM | > 20 µM
20 | COc1ccc2[nH]c3c(C(=O)/C=C/c4ccc(Cl)c(C)c4)nccc3c2c1 | 4.38 µM | 6.45 µM | 2.74 µM | 1.89 µM | 7.49 µM | > 10 µM | > 20 µM
21 | COc1ccc2[nH]c3c(C(=O)/C=C/c4cc(OC)c(OC)cc4Br)nccc3c2c1 | 8.05 µM | > 20 µM | > 20 µM | 11.3 µM | 4.51 µM | > 10 µM | > 20 µM
22 | CCc1ccc(/C=C/C(=O)c2nccc3c2[nH]c2ccccc23)cc1 | > 20 µM | > 20 µM | > 20 µM | > 20 µM | > 20 µM | > 10 µM | > 20 µM
23 | COc1ccc2[nH]c3c(C(=O)/C=C/c4cccc(I)c4)nccc3c2c1 | 1.58 µM | 8.71 µM | > 20 µM | 2.34 µM | > 20 µM | > 10 µM | > 20 µM
24 | COc1ccc(/C=C/C(=O)c2nccc3c2[nH]c2ccccc23)c(OC)c1OC | > 20 µM | > 20 µM | 11.6 µM | > 20 µM | > 20 µM | > 10 µM | > 20 µM
25 | COc1ccc2[nH]c3c(C(=O)/C=C/c4ccc(F)c(OC)c4)nccc3c2c1 | 0.77 µM | 1.41 µM | 6.33 µM | 2.47 µM | 6.48 µM | 0.99 µM | > 20 µM
26 | O=C(/C=C/c1ccc2c(c1)OCCO2)c1nccc2c1[nH]c1ccccc12 | > 20 µM | 15.2 µM | 13.2 µM | > 20 µM | > 20 µM | > 10 µM | > 20 µM
27 | COc1cc(/C=C/C(=O)c2nccc3c2[nH]c2ccccc23)ccc1F | 2.38 µM | 3.25 µM | 5.7 µM | 10.9 µM | 3.07 µM | 1.02 µM | > 20 µM
28 | O=C(/C=C/c1ccc(Br)cc1)c1nccc2c1[nH]c1ccccc12 | 3.54 µM | 9.21 µM | > 20 µM | 9.73 µM | 12.2 µM | > 10 µM | > 20 µM

— ChEMBL document CHEMBL5518180, “Design, synthesis, and biological evaluation of harmine derivatives as topoisomerase I inhibitors for cancer treatment” (Eur J Med Chem, 2024)
